Like-named read-outs stand apart in the source and are kept apart here.
Key:
[1] = tested on: NF-κB-SEAP reporter in J774-Dual cells; assay: J774-Dual NF-κB-SEAP reporter assay; type: cell-based, mouse; conditions: for EC50: Mus musculus, read-out: J774 NFkB EC50
Method: (§1) First, optimal assay conditions and assay quality in 384-well format were determined. As mentioned, the mouse macrophage J774 cell line (J774-Dual, InvivoGen) stably transfected with the same inducible reporters described above (e.g., IRF-Lucia luciferase and NF-κB-SEAP) was used. The responsiveness of the J774-Dual cell line was investigated in an array of assay conditions to obtain sensitive and reproducible results for the activation of the IRF and NF-κB reporters. An optimal plating density and conditions for these cells was established for these cells in a 384-well format. Assay work-flow is similar to that discussed above for the THP1-Dual assay without a need for cell differentiation. Thus, cells are seeded directly in growth medium and incubated at 37° C. in a 5% C02 incubator for 24 hours prior to the programmed treatments being added as described herein.
(§2) The primary high throughput screen used the HTS platform of human THP1 monocyte cells containing the IRF-Lucia luciferase and NFκB-SEAP (secreted embryonic alkaline phosphatase) dual reporter (THP1-Dual, Invivogen), enabling the simultaneous study of the IRF and NFκB signaling pathways respectively. As discussed, the Lucia luciferase reporter gene is under the control of an ISG54 (interferon-stimulated gene) minimal promoter in conjunction with five interferon-stimulated response elements (ISRE). The SEAP gene is driven by an IFNβ minimal promoter fused to five copies of the NFκB consensus transcriptional response element and three copies of the c-Rel binding site. Both IRF-Lucia luciferase and NFκB-SEAP reporter proteins are secreted and readily measurable in the cell culture supernatant when using QUANTI-Luc™ and QUANTI-Blue™ detection reagents, respectively. Identified “hits” were confirmed in a secondary screen with an 8-point dose response curve. Hits were further screened for activity in the mouse using the mouse J774 macrophage-like cell line containing the identical reporter constructs (J774-Dual, Invivogen).
(§3) The OTRADI Small Molecule Library of approximately 246,000 diverse compounds (see below for description) was screened using the THP1-Dual based HTS platform described above. All transfer steps in the screen are fully automated, thus reducing variability. Primary screening included a single data point or dose for each molecule. After data normalization was applied for each assay run, “hit” selection was performed on the plates that pass the quality control (QC) criterion. Hits were defined as samples having values above the activity cutoff determined based on noise level of the assay to reduce false positive rates. In the pilot study discussed above this activity value was >3σ above the ISRE mean with the added criteria of NFκB activation being lower than […] from the mean to identify IRF selective compounds. The ratio of ISRE:NFκB activity was also calculated as a selectivity index for prioritizing hit selection. Primary hits underwent secondary screening to determine the 50% effective concentration (EC50) and 50% cytotoxic concentration (CC50) of these agents using an 8-point dose-response curve in the human THP1-Dual cells. Cytotoxicity was measured in the plate using Cell Titer Glo (Promega). Identified candidate compounds were further screened (orthogonal screen) for cross species activity in the validated mouse J774-Dual assay using an 8-point dose-response format to determine EC50 and CC50 values as well as ISRE:NFκB ratios. A general process flow for the experimental design laid out above is depicted at FIG. 12.

[2] = tested on: NF-κB-SEAP reporter in THP1-Dual cells; assay: THP1-Dual NF-κB-SEAP reporter counterscreen; type: cell-based, human; conditions: Homo sapiens, THP1-Dual, read-out: THP1 NFkB EC50
Method: THP1 Dual (InvivoGen) cell suspensions were cultured in RPMI 1640 (Hyclone, Logan, Utah) supplemented with 10% fetal bovine serum (Hyclone), 100 U/mL Normocin (Invivogen), and 50 U/mL PenStrep (Gibco, Dublin, Ireland) between a density of 7·10^5-2·10^6 cells/mL. Every other passage, media was supplemented with 5 U/mL Blasticidin and 100 U/mL Zeocin to maintain the expression constructs. White, flat-bottom 384-well plates (Greiner, Kremsmunster, Austria, 781080) were seeded with 2.5·10^4 cells/well in a total of 50 μL media containing 5 ng/mL phorbolmyristic acid (PMA) using a Matrix WellMate (Thermo Scientific) dispenser. After 48 hours of incubation at 37° C., media was removed using a BioTek ELx405 CW plate washer set to aspirate and wash each well three times with 65 μL 1×PBS. Plates were reloaded with 50 μL media without PMA and treatments added. Lipopolysaccharide in dimethylsulfoxide (DMSO) was transferred to control wells using a HP D300 microdispenser to a final concentration of 313 ng/mL. Compounds from chemical library plates were copied using a Sciclone (Caliper LifeSciences) mounted with a 384-pin transfer tool to obtain a final concentration of 10 μM. After incubation with treatments for 24 hours, 10 μL of supernatant media from each well was transferred into a white, flat-bottom 384-well plate for luminescence readout and a black-walled, clear flat-bottom 384-well plate for absorbance readout.
Specifically, to enable screening of novel chemical entities (NCEs) in a larger screening effort, a robust high-throughput cell-based assay system for primary hit identification of ISRE activators based on the above-mentioned target validation was desired. Human ISRE activity was verified using a THP-1 monocyte line containing the NF-κB-SEAP and IRF-Lucia luciferase dual reporter (THP1-Dual; Invivogen) that features two reporter genes, SEAP (secreted embryonic alkaline phosphatase) and Lucia luciferase, thereby enabling the simultaneous study of the NF-κB and IRF signalling pathways. The Lucia luciferase reporter is under the control of an ISG54 (interferon-stimulated gene) minimal promoter in conjunction with five IFN-stimulated response elements. The SEAP gene is driven by an IFN-β minimal promoter fused to five copies of the NF-κB consensus transcriptional response element and three copies of the c-Rel binding site. Both reporter proteins are readily measurable in the cell culture supernatant when using QUANTI-LUC™ and QUANTI-Blue SEAP detection reagents.
Using the experimental design and data analysis outlined above, optimized assay conditions were obtained. The responsiveness of the human THP-1 Dual cell line was evaluated in an array of assay conditions to obtain sensitive and reproducible results for the activation of IRF and NF-κB reporters. An optimal plating density and differentiation protocol for these cells was established in a 384-well format. All transfer steps are fully automated using high throughput robotic equipment. Briefly, cells are seeded in differentiation medium using a Matrix WellMate fitted with the WellMate Stacker (Thermo Scientific) and incubated at 37° C. with 5% CO2 for 48 h. Following differentiation, cells are washed using a BioTek ELx405 Select CW plate washer and growth medium added with the Matrix WellMate. Programmed control treatments are added to wells using a D300 digital dispenser fitted with T8+ dispense heads (Hewlett Packard) designed to dispense nanoliter quantities of material. Compounds from library plates are added using a pin tool fitted to a Sciclone ALH 3000 Workstation (Caliper Life Sciences) programmed with Maestro v4.4. After treatment, plates are returned to incubators for 24 hours. To measure reporter expression, supernatant is collected using the Sciclone and dispensed into 2 plates: 1) a white 384-well assay plate for Lucia luminescence measurements and 2) a clear-bottom black 384-well assay plate for SEAP absorbance measurements. […]

[3] = tested on: IRF-Lucia luciferase reporter (ISRE) in THP1-Dual cells; assay: THP1-Dual IRF-Lucia luciferase reporter assay (ISRE activation); type: cell-based, human; conditions: for EC50: Homo sapiens, THP1-Dual, read-out: THP1 IRF EC50
How it was run: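 THP1-Dual cells were differentiated with 5 ng/mL PMA for 48 h at 37° C, washed, then treated with compounds at 10 μM final for 24 h; LPS at 313 ng/mL served as control. ISRE-driven Lucia luciferase in supernatant was read by luminescence.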

[4] = THP1-Dual cytotoxicity (Cell Titer Glo, ATP); type: cell-based, human; conditions: human, THP1-Dual cells, read-out: Thp1 cytotox CC50
How it was run: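 Human THP1-Dual cells were treated across an 8-point dose-response range. Cytotoxicity was measured in-plate by CellTiter-Glo luminescence, which quantifies ATP as a marker of metabolically active cells, and CC50 was taken as the 50% cytotoxic concentration.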

[5] = J774-Dual cytotoxicity; type: cell-based, mouse; conditions: mouse, J774-Dual cells, read-out: J774 cytotox CC50
How it was run: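 Orthogonal cross-species screen in mouse J774-Dual cells using 8-point dose-response format. Cytotoxicity measured in-plate by CellTiter-Glo luminescence, giving CC50 alongside EC50 and ISRE:NFκB ratios.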

[6] = tested on: IRF-Lucia luciferase reporter (ISRE) in J774-Dual cells; assay: J774-Dual IRF-Lucia luciferase reporter assay (ISRE activation); type: cell-based, mouse; conditions: for EC50: Mus musculus, read-out: J774 IRF EC50
Method: as §1, §2, §3

[7] = J774, Mouse Reporter Cell Line J774
[8] = Human Reporter Cell Line, 8-point dose response
[9] = J774, Mouse Reporter Cell Line, 8-point dose response

| Structure (SMILES) | EC50 [3, 8] [µM] | EC50 ([3]; Human Reporter Cell Line THP1) [µM] | EC50 ([2]; Human Reporter Cell Line THP1) [µM] | EC50 [2, 8] [µM] | CC50 ([4]; Human Reporter Cell Line) [µM] | CC50 ([5]; Mouse Reporter Cell Line) [µM] | CC50 ([4]; Human Reporter Cell Line THP1) [µM] | CC50 ([5]; Mouse Reporter Cell Line J774) [µM] | further results |
| --- | --- | --- | --- | --- | --- | --- | --- | --- | --- |
| Cc1ccc(C(=O)Nc2cc(-c3nc4cc(C(C)C)ccc4o3)ccc2C)cc1C [ND-103] |  |  | 25 |  |  |  |  |  | EC50 [1, 7]: 9.17 µM |
| O=C(Nc1ccc(N2CCN(C(=O)c3cccs3)CC2)cc1)c1ccc(OCc2ccc(OC(F)(F)F)cc2)cc1 [NA-34] | 4.42 |  |  | 6.38 | > 25 | > 25 |  |  |  |
| CCOc1cccc(COc2ccc(C(=O)Nc3ccc(N4CCN(C(=O)c5cccs5)CC4)cc3)cn2)c1 [NA-71] | 3.33 |  |  | 6.57 | > 10 | > 10 |  |  |  |
| CCCN(CCC)C(=O)C1=Cc2ccc(-c3ccc(C(=O)N4CCCC4)cc3)cc2N=C(N)C1 [ND-88] |  |  | 1.72 |  |  |  | > 25 | > 25 | EC50 [1, 7]: 0.72 µM |
| CCCCOc1nc(N)c2c(n1)N(Cc1cccc(CN3CCCC3)c1)CC(=O)N2 [NA-63] |  |  |  | 2.94 |  | 73.9 |  |  | EC50 [1, 9]: 2.77 µM |
| COc1ccc(C(=O)Nc2cc(-c3nc4ccccc4s3)ccc2C)cc1OC [ND-66] |  |  | ~0.66 |  |  |  | 17.9 | > 25 | J774 IRF % activation at peak ([6]; Mouse Reporter Cell Line J774, at peak): ~32.86%; EC50 [6, 7]: ~28.6 µM |
| O=C(Nc1ccc(N2CCN(C(=O)c3cccs3)CC2)cc1)c1ccc(OCc2ccccc2)cn1 [NA-60] | 2.23 |  |  | 2.27 | 23 |  |  |  | J774 IRF % activation at peak ([6]; Mouse Reporter Cell Line): 33.91%; EC50 [6, 9]: 1.77 µM |
| COc1ccc(C(=O)Nc2ccc(N3CCN(C(=O)c4cccs4)CC3)cc2)c2ccccc12 [NA-15] | 5.89 |  |  |  | > 25 | > 25 |  |  | EC50 [1, 9]: 1.63 µM |
| COc1ccc(NC(=O)c2cc(NC(=O)c3cccs3)ccc2N2CCOCC2)cc1 [NB-14] |  | 6.9 |  |  |  |  | > 25 | > 25 | EC50 [1, 7]: 11.3 µM |
| COc1cccc2c1C(=O)c1c(O)c3c(c(O)c1C2=O)C[C@@](O)(C(C)=O)C[C@@H]3O[C@H]1C[C@H](N)[C@H](O)[C@H](C)O1 [OTR-0000353-001 (Daunorubicin), Daunorubicin, reference compound] |  |  |  |  |  |  |  |  | NF-κB activation in J774 screen ([1]; J774-Dual pilot screen): high NF-κB activity; Average ISRE/NFκB (Range) ([3]; human THP1 pilot screen, 10 μM, 3 screens): 0.7 (0.2-1.0); Average ISRE % Activation ([3]; human THP1 pilot screen, 10 μM, 24 hours, percent of LPS activation signal +/− SD, 3 screens): 4.0 +/− 1.8%; Average ISRE/NFκB (Range) ([6]; mouse J774-Dual pilot screen, 3 screens): 0.1 (0.09-0.18); Average ISRE % Activation ([6]; mouse J774-Dual pilot screen, percent of LPS activation signal +/− SD, 3 screens): 5.4 +/− 1.6%; ISRE activation in both THP1-Dual and J774-Dual screens ([6]; pilot screens): cross-species ISRE activity |
| O=C(Nc1ccc(N2CCN(C(=O)c3cccs3)CC2)cc1)c1ccc(-c2ccccc2)cc1 [NA-19] | 1.02 |  |  | 1.47 | 8.49 | > 25 |  |  |  |

Further lines, with some results ahead:

| EC50 [3, 8] [µM] | EC50 ([3]; Human Reporter Cell Line THP1) [µM] | Structure (SMILES) | EC50 ([2]; Human Reporter Cell Line THP1) [µM] | EC50 [2, 8] [µM] | CC50 ([4]; Human Reporter Cell Line) [µM] | CC50 ([5]; Mouse Reporter Cell Line) [µM] | CC50 ([4]; Human Reporter Cell Line THP1) [µM] | CC50 ([5]; Mouse Reporter Cell Line J774) [µM] | further results |
| --- | --- | --- | --- | --- | --- | --- | --- | --- | --- |
|  | 0.401 | COc1ccc(-c2nc3ccccc3s2)cc1NC(=O)c1ccc([N+](=O)[O-])cc1Cl [ND-67] | ~12.3 |  |  |  | 8.87 | > 25 |  |
|  | 5.39 | COc1ccc(C(=O)Nc2ccc(O)c(-c3nc4ccccc4s3)c2)cc1[N+](=O)[O-] [ND-65] | 12 |  |  |  | > 25 | > 25 |  |
|  | ~0.00225 | Cc1c(C(=O)Nc2ccc3oc(-c4cccnc4)nc3c2)cccc1[N+](=O)[O-] [ND-42] | ~15.6 |  |  |  | > 25 | > 25 |  |
| 4.13 |  | COC(=O)Cc1ccc(NC(=O)c2ccc(NC(=O)c3ccco3)cc2)cc1 [NC-3] |  | ~6.13 | > 25 | > 25 |  |  |  |
|  | ~0.496 | COc1ccc(C(=O)Nc2cc(-c3nc4ccccc4s3)ccc2Cl)cc1[N+](=O)[O-] [ND-89] | 10.6 |  |  |  | > 25 | > 25 |  |
|  | 8.49 | Cc1cc2nc(-c3ccc(C)c(NC(=O)c4ccc([N+](=O)[O-])cc4)c3)oc2cc1C [ND-71] | 6.94 |  |  |  | > 25 | > 25 |  |
